# Results from PubChem BioAssay (NCI).
#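 Briefly, cells in 96-well plates were exposed to five compound concentrations for 48 h, and endpoints were estimated by linear interpolation. The concentration for 50% growth inhibition is given as GI50. TGI: concentration producing complete growth inhibition.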
# What was measured:
# Experiment in all cases: NCI anticancer screen, dose series, 48 h
# 786-0 renal = tested on: 786-0 renal
# A498 renal = tested on: A498 renal
# A549 NSCLC = tested on: A549 NSCLC
# ACHN renal = tested on: ACHN renal
# BT-549 breast = tested on: BT-549 breast
# CAKI-1 renal = tested on: CAKI-1 renal
# CCRF-CEM leukemia = tested on: CCRF-CEM leukemia
# COLO 205 colon = tested on: COLO 205 colon
# DU-145 prostate = tested on: DU-145 prostate
# EKVX NSCLC = tested on: EKVX NSCLC
# HCC-2998 colon = tested on: HCC-2998 colon
# HCT-116 colon = tested on: HCT-116 colon
# HCT-15 colon = tested on: HCT-15 colon
# HL-60(TB) leukemia = tested on: HL-60(TB) leukemia
# HOP-62 NSCLC = tested on: HOP-62 NSCLC
# HOP-92 NSCLC = tested on: HOP-92 NSCLC
# HS 578T breast = tested on: HS 578T breast
# HT29 colon = tested on: HT29 colon
# IGROV1 ovarian = tested on: IGROV1 ovarian
# K-562 leukemia = tested on: K-562 leukemia
# KM12 colon = tested on: KM12 colon
# LOX IMVI melanoma = tested on: LOX IMVI melanoma
# M14 melanoma = tested on: M14 melanoma
# MALME-3M melanoma = tested on: MALME-3M melanoma
# MCF7 breast = tested on: MCF7 breast
# MDA-MB-231 breast = tested on: MDA-MB-231 breast
# MDA-MB-435 = tested on: MDA-MB-435
# MOLT-4 leukemia = tested on: MOLT-4 leukemia
# NCI-H226 lung = tested on: NCI-H226 lung
# NCI-H23 lung = tested on: NCI-H23 lung
# NCI-H460 lung = tested on: NCI-H460 lung
# NCI-H522 lung = tested on: NCI-H522 lung
# NCI/ADR-RES ovarian = tested on: NCI/ADR-RES ovarian
# OVCAR-3 ovarian = tested on: OVCAR-3 ovarian
# OVCAR-4 ovarian = tested on: OVCAR-4 ovarian
# OVCAR-5 ovarian = tested on: OVCAR-5 ovarian
# OVCAR-8 ovarian = tested on: OVCAR-8 ovarian
# PC-3 prostate = tested on: PC-3 prostate
# RPMI-8226 leukemia = tested on: RPMI-8226 leukemia
# RXF 393 renal = tested on: RXF 393 renal
# SF-268 CNS = tested on: SF-268 CNS
# SF-295 CNS = tested on: SF-295 CNS
# SF-539 CNS = tested on: SF-539 CNS
# SK-MEL-2 melanoma = tested on: SK-MEL-2 melanoma
# SK-MEL-28 melanoma = tested on: SK-MEL-28 melanoma
# SK-MEL-5 melanoma = tested on: SK-MEL-5 melanoma
# SK-OV-3 ovarian = tested on: SK-OV-3 ovarian
# SN12C renal = tested on: SN12C renal
# SNB-19 CNS = tested on: SNB-19 CNS
# SNB-75 CNS = tested on: SNB-75 CNS
# SR leukemia = tested on: SR leukemia
# SW-620 colon = tested on: SW-620 colon
# T-47D breast = tested on: T-47D breast
# TK-10 renal = tested on: TK-10 renal
# U251 CNS = tested on: U251 CNS
# UACC-257 melanoma = tested on: UACC-257 melanoma
# UACC-62 melanoma = tested on: UACC-62 melanoma
# UO-31 renal = tested on: UO-31 renal
smiles,measurement,setting,value
O=C1C(=O)c2c(nc3ccc(C(F)(F)F)cn23)-c2ccccc21,GI50,786-0 renal,0.396 µM
same,TGI,786-0 renal,0.835 µM
same,GI50,A498 renal,1.82 µM
same,TGI,A498 renal,3.25 µM
same,GI50,A549 NSCLC,0.513 µM
same,TGI,A549 NSCLC,1.23 µM
same,GI50,ACHN renal,0.185 µM
same,TGI,ACHN renal,0.381 µM
same,GI50,BT-549 breast,0.186 µM
same,TGI,BT-549 breast,0.442 µM
same,GI50,CAKI-1 renal,0.162 µM
same,TGI,CAKI-1 renal,0.297 µM
same,GI50,CCRF-CEM leukemia,0.39 µM
same,GI50,COLO 205 colon,1.63 µM
same,TGI,COLO 205 colon,3.52 µM
same,GI50,DU-145 prostate,0.185 µM
same,TGI,DU-145 prostate,0.345 µM
same,GI50,EKVX NSCLC,0.178 µM
same,TGI,EKVX NSCLC,0.396 µM
same,GI50,HCC-2998 colon,0.499 µM
same,TGI,HCC-2998 colon,0.988 µM
same,GI50,HCT-116 colon,0.176 µM
same,TGI,HCT-116 colon,0.354 µM
same,GI50,HCT-15 colon,0.202 µM
same,TGI,HCT-15 colon,0.656 µM
same,GI50,HL-60(TB) leukemia,0.201 µM
same,TGI,HL-60(TB) leukemia,0.6 µM
same,GI50,HOP-62 NSCLC,0.169 µM
same,TGI,HOP-62 NSCLC,0.339 µM
same,GI50,HOP-92 NSCLC,0.265 µM
same,TGI,HOP-92 NSCLC,0.773 µM
same,GI50,HS 578T breast,0.206 µM
same,TGI,HS 578T breast,0.523 µM
same,GI50,HT29 colon,0.923 µM
same,TGI,HT29 colon,3.61 µM
same,GI50,IGROV1 ovarian,0.191 µM
same,TGI,IGROV1 ovarian,0.47 µM
same,GI50,K-562 leukemia,0.175 µM
same,TGI,K-562 leukemia,0.787 µM
same,GI50,KM12 colon,0.288 µM
same,TGI,KM12 colon,0.995 µM
same,GI50,LOX IMVI melanoma,0.173 µM
same,TGI,LOX IMVI melanoma,0.354 µM
same,GI50,M14 melanoma,0.18 µM
same,TGI,M14 melanoma,0.329 µM
same,GI50,MALME-3M melanoma,0.158 µM
same,TGI,MALME-3M melanoma,0.295 µM
same,GI50,MCF7 breast,0.168 µM
same,TGI,MCF7 breast,0.4 µM
same,GI50,MDA-MB-231 breast,0.215 µM
same,TGI,MDA-MB-231 breast,0.74 µM
same,GI50,MDA-MB-435,0.179 µM
same,TGI,MDA-MB-435,0.324 µM
same,GI50,MOLT-4 leukemia,0.237 µM
same,TGI,MOLT-4 leukemia,0.602 µM
same,GI50,NCI-H226 lung,0.72 µM
same,TGI,NCI-H226 lung,1.77 µM
same,GI50,NCI-H23 lung,0.175 µM
same,TGI,NCI-H23 lung,0.477 µM
same,GI50,NCI-H460 lung,0.466 µM
same,TGI,NCI-H460 lung,1.08 µM
same,GI50,NCI-H522 lung,0.206 µM
same,TGI,NCI-H522 lung,0.549 µM
same,GI50,NCI/ADR-RES ovarian,0.23 µM
same,TGI,NCI/ADR-RES ovarian,0.581 µM
same,GI50,OVCAR-3 ovarian,0.179 µM
same,TGI,OVCAR-3 ovarian,0.443 µM
same,GI50,OVCAR-4 ovarian,0.137 µM
same,TGI,OVCAR-4 ovarian,0.271 µM
same,GI50,OVCAR-5 ovarian,0.414 µM
same,TGI,OVCAR-5 ovarian,0.998 µM
same,GI50,OVCAR-8 ovarian,0.253 µM
same,TGI,OVCAR-8 ovarian,0.651 µM
same,GI50,PC-3 prostate,0.21 µM
same,TGI,PC-3 prostate,0.761 µM
same,GI50,RPMI-8226 leukemia,0.169 µM
same,TGI,RPMI-8226 leukemia,0.53 µM
same,GI50,RXF 393 renal,0.254 µM
same,TGI,RXF 393 renal,0.616 µM
same,GI50,SF-268 CNS,0.224 µM
same,TGI,SF-268 CNS,0.609 µM
same,GI50,SF-295 CNS,0.436 µM
same,TGI,SF-295 CNS,0.855 µM
same,GI50,SF-539 CNS,0.169 µM
same,TGI,SF-539 CNS,0.313 µM
same,GI50,SK-MEL-2 melanoma,0.209 µM
same,TGI,SK-MEL-2 melanoma,0.434 µM
same,GI50,SK-MEL-28 melanoma,0.221 µM
same,TGI,SK-MEL-28 melanoma,0.431 µM
same,GI50,SK-MEL-5 melanoma,0.171 µM
same,TGI,SK-MEL-5 melanoma,0.31 µM
same,GI50,SK-OV-3 ovarian,0.551 µM
same,TGI,SK-OV-3 ovarian,1.12 µM
same,GI50,SN12C renal,0.186 µM
same,TGI,SN12C renal,0.354 µM
same,GI50,SNB-19 CNS,0.303 µM
same,TGI,SNB-19 CNS,0.763 µM
same,GI50,SNB-75 CNS,0.202 µM
same,TGI,SNB-75 CNS,0.465 µM
same,GI50,SR leukemia,0.225 µM
same,TGI,SR leukemia,> 100 µM
same,GI50,SW-620 colon,0.192 µM
same,TGI,SW-620 colon,0.397 µM
same,GI50,T-47D breast,0.214 µM
same,TGI,T-47D breast,0.57 µM
same,GI50,TK-10 renal,0.738 µM
same,TGI,TK-10 renal,1.24 µM
same,GI50,U251 CNS,0.185 µM
same,TGI,U251 CNS,0.377 µM
same,GI50,UACC-257 melanoma,0.193 µM
same,TGI,UACC-257 melanoma,0.363 µM
same,GI50,UACC-62 melanoma,0.179 µM
same,TGI,UACC-62 melanoma,0.343 µM
same,GI50,UO-31 renal,0.164 µM
same,TGI,UO-31 renal,0.345 µM
